Read-outs that look alike come from different tables or passages of the source.
Key:
[1] = tested on: L1210vDOX; assay: Reversal of MDR in L1210vDOX (MDR sensitization assay, doxorubicin with or without MDR inhibitor); assay type: cell-based, mouse; conditions: for IC50: 3 days
[2] = tested on: HL60/ADR cells; assay: Reversal of MRP-mediated MDR in HL60/ADR cells (doxorubicin with or without MDR inhibitor); assay type: cell-based; conditions: for Fold reversal (IC50 doxorubicin alone / IC50 doxorubicin + MDR inhibitor): HL60/ADR
Method: We plated HL60/ADR cells in 96 well microtiter plates (4×10^4 cells/well). The cells were then exposed to various concentrations of doxorubicin (50 nM to 10 μM) in the presence or absence of various compounds of this invention at various concentrations (0.5-10 μM). After culturing the cells for 3 days, their viability was quantitated using the XTT dye method to assess mitochondrial function. […] IC50 values are expressed in nM. In all assays the intrinsic antiproliferative or cytotoxicity activity of the MDR inhibitors was also determined for HL60/ADR cells.

[3] = IC50 of doxorubicin in presence of 0.5 μM Cpd, read-out: IC50 DOX + 0.5 μM Cpd
[4] = IC50 of doxorubicin in presence of 1.0 μM Cpd, read-out: IC50 DOX + 1.0 μM Cpd
[5] = IC50 of doxorubicin in presence of 2.5 μM Cpd, read-out: IC50 DOX + 2.5 μM Cpd

Row | Structure (SMILES) | MDR ratio (IC50 Dox / IC50 Dox+Inhibitor) ([1]; MDR ratio at 0.5 μM Cpd) | MDR ratio (IC50 Dox / IC50 Dox+Inhibitor) ([1]; MDR ratio at 1.0 μM Cpd) | MDR ratio (IC50 Dox / IC50 Dox+Inhibitor) ([1]; MDR ratio at 2.5 μM Cpd) | IC50 ([2]; Homo sapiens, 72 h, doxorubicin alone, control of the compound of the line, HL60/ADR cells, 3 days, read-out: IC50 DOX Alone) | IC50 [1, 3] | IC50 [1, 4] | IC50 [1, 5] | Fold reversal (IC50 doxorubicin alone / IC50 doxorubicin + MDR inhibitor) ([2]; ratio at 0.5 μM Cpd) | Fold reversal (IC50 doxorubicin alone / IC50 doxorubicin + MDR inhibitor) ([2]; ratio at 1.0 μM Cpd) | Fold reversal (IC50 doxorubicin alone / IC50 doxorubicin + MDR inhibitor) ([2]; ratio at 2.5 μM Cpd)
1 | COc1cc(C(=O)C(=O)N2CCCC[C@H]2C(=O)N(Cc2ccccc2)C2CCCc3ccc(OCc4ccncc4)cc32)cc(OC)c1OC (single isomer, unassigned) [Compound 15] | 6.1 | > 8.5 | > 8.5 | – | – | – | – | – | – | –
2 | COc1cccc2c1C(=O)c1c(O)c3c(c(O)c1C2=O)C[C@@](O)(C(=O)CO)C[C@@H]3O[C@H]1C[C@H](N)[C@H](O)[C@H](C)O1 [DOX, doxorubicin, reference compound] | – | – | – | 3500 nM | – | – | – | – | – | –
3 | COc1cc(C(=O)C(=O)N2CCCC[C@H]2C(=O)N[C@@H]2CCCc3ccc(OCc4ccncc4)cc32)cc(OC)c1OC [Compound 11A, 1-(2-Oxo-2-(3,4,5-trimethoxyphenyl)-acetyl)-piperidine-2(S)-carboxylic acid 2-((7-pyridin-4-ylmethoxy)-1,2,3,4-tetrahydronaphthalen-1(R)-yl) amide] | 1.1 | 2.0 | 4.0 | – | 650 nM | 350 nM | 175 nM | – | – | –
4 | CCCOc1cc2c(c(OCCC)c1C)CC[C@H](Cc1cccnc1)[C@@H]2OC(=O)[C@@H]1CCCCN1C(=O)C(=O)c1cc(OC)c(OC)c(OC)c1 [Compound 29A] | 1.4 | 1.8 | > 7.0 | – | 250 nM | 190 nM | < 50 nM | – | – | –
5 | COc1cc(C(=O)C(=O)N2CCCC[C@H]2C(=O)O[C@H]2CCCc3ccc(OCc4ccncc4)cc32)cc(OC)c1OC [Compound 6, 1-(2-Oxo-2-(3,4,5-trimethoxyphenyl)-acetyl)-piperidine-2(S)-carboxylic acid 2-((7-pyridin-4-ylmethoxy)-1,2,3,4-tetrahydronaphthalen-1(S)-yl) ester] | 4.8 | 6.3 | 9.5 | – | – | – | – | 8.8 | 6.4 | 39
6 | COc1cc(C(=O)C(=O)N2CCCC[C@H]2C(=O)N(Cc2ccccc2)C2CCCc3ccc(OCc4ccncc4)cc32)cc(OC)c1OC (single isomer, unassigned) [Compound 16] | 2.2 | 7.1 | > 8.5 | – | – | – | – | 2.3 | 39 | > 60
7 | COc1cc(C(=O)C(=O)N[C@@H](Cc2ccccc2)C(=O)O[C@@H]2CCCc3ccc(OCc4ccncc4)cc32)cc(OC)c1OC [Compound 19, 3-Benzyl-2(S)-((2-oxo-2-(3,4,5-trimethoxyphenyl-)acetyl)amino) propanoic acid ((7-pyridin-4-ylmethoxy)-1,2,3,4-tetrahydronaphthalen-1(R)-yl) ester] | 1.6 | 2.4 | 6.3 | – | – | – | – | – | – | –
8 | COc1cc(C(=O)C(=O)N2Cc3ccccc3C[C@H]2C(=O)O[C@@H]2CCCc3ccc(OCc4ccncc4)cc32)cc(OC)c1OC [Compound 17, 2-(2-Oxo-2-(3,4,5-trimethoxyphenyl)-acetyl)-1,2,3,4-tetrahydroisoquinoline-3(S)-carboxylic acid 2-((7-pyridin-4-ylmethoxy)-1,2,3,4-tetrahydronaphthalen-1(R)-yl) ester] | 5.6 | 8.7 | 11.1 | – | – | – | – | 2.3 | 11.7 | 11.7

— US5726184A, “Tetralin compounds with improved MDR activity” (Vertex Pharmaceuticals Incorporated, priority 1995, dated 1998)
